Source: patent US9173898B2, “Methods of treating giardiasis” (THE UNITED STATES OF AMERICA, as represented by the …, priority 2010, dated 2015)
≈ marks a conversion by molar mass, not a printed value. Counter-ions that a name gives are not always drawn. Like-named read-outs stand apart in the source and are kept apart here.

Key:
Giardia WB = test: Giardia viability (ATP content) assay in 1536-well format; format: cell-based, Giardia lamblia; settings: for Emax: 48 h, read-out: Giardia WB Efficacy; for Emax / Giardia WB Efficacy: percent reduction in ATP levels compared with 38.3 mM Mnz at maximal compound concentration; for IC50: concentration at which 50% of DMSO control ATP levels are detected, 48 hours, 1536-well
Protocol: (§1) For the viability assay in 1536-well format, 2 μL media was dispensed per well into 1536-well white solid-bottom plates using a Multidrop Combi dispenser (Thermo Scientific). Subsequently, 23 nL/well compound solutions or DMSO controls were dispensed to the assay plates containing media via a pintool workstation (Kalypsys, San Diego). Trophozoites were chilled on ice to detach from glass tubes, and unless otherwise noted, were diluted to 250,000 trophozoites/mL with ice cold media. The trophozoite suspension was kept on ice and dispensed as 4 μL/well with the Multidrop Combi dispenser. Attachment of trophozoites to dispensing apparatus was avoided with continuous dispensing and icing of the trophozoite suspension. The plates were covered with plastic low-evaporation lids, individually sealed in Type A Bio-Bags and incubated at 37° C. for 48 hours. Following incubation, 4 μL/well of ATPLite reagent was dispensed with the Multidrop Combi dispenser. The assay plates were briefly centrifuged at 1000 RPM and luminescence signal was detected on a ViewLux plate reader (PerkinElmer) after 20 min incubation at room temperature. Signal-to-basal (S/B) ratio, Z′ factor and coefficient of variation (CV) were calculated from 32 wells with 0.38% DMSO (total signal) and 32 well with 38.3 μM Mnz (basal signal).
Assay miniaturization in 1,536-well plate format was undertaken to increase throughput and facilitate screening of large compound libraries. The volume of trophozoites suspension was reduced to 6 μL/well and the ATP detection reagent was reduced to 4 μL/well in the 1536-well assay plates. […] The 100 trophozoites/well density was selected for further experiments to reduce the preparation work of Giardia cultures. Following these conditions, a DMSO test plate was used to assess the statistical parameters of the assay in the 1,536-well plate format.
Using the above established conditions in 1536-well format, each compound of the invention was tested at 5 concentration points, ranging from 61 nM-38.3 μM in a 1:5 dilution ratio (Inglese, J., D. S. Auld, A. Jadhav, R. L. Johnson, A. Simeonov, A. Yasgar, W. Zheng, and C. P. Austin. 2006. Quantitative high-throughput screening: a titration-based approach that efficiently identifies biological activities in large chemical libraries. Proc Natl Acad Sci USA 103:11473-8).

CHO cells [1] = test: CHO cell cytotoxicity assay in 1536-well format (ATP content counter-screen); format: cell-based, Chinese hamster; settings: for Emax: Cricetulus griseus, CHO, 48 h, percent reduction in ATP levels compared with 38.3 µM camptothecin at maximal compound concentration, read-out: CHO Efficacy; for CHO Efficacy: percent reduction in ATP levels compared with 38.3 mM camptothecin at maximal compound concentration
[2] = system: Giardia lamblia GS isolate; test: Minimum Lethal Concentration (MLC) determination; format: cell-based; settings: 3 days with compound, then 3 days regrowth without compound, tube without any live organisms
Protocol: Giardia lamblia GS isolate was used throughout the Minimal Lethal Concentration (MLC) experiments. Organisms were grown and maintained in TYI-S-33 medium supplemented with bile and antibiotics (Keister, 1983). Cidal activity was determined in 96-well culture plates (Corning Incorporated) followed by Giardia trophozoites regrowth in 8 ml tubes (Fisher Scientific). Dry compounds were dissolved in DMSO (Sigma) at stock concentration of 10 mM and then added to the growth media to ensure final DMSO concentration of no more than 0.5%. 100 μl of the compound solutions were placed in the wells by serial dilutions. 10 μl of Giardia trophozoites containing 10000 organisms were then added. Serial dilutions of metronidazole served as the positive control and the DMSO-containing medium served as the negative control. Plates were incubated under anaerobic conditions in sealed bags (Becton Dickinson and Company) at 37° C. for 3 days and surveyed visually under microscope to check survival, mobility and attachment of trophozoites. The plate was chilled on ice for 30 min and the entire contents of 4 wells in the growth/death transition were transferred into the 8 ml tubes containing growth media only (without the compound). After 3 days of incubation at 37° C., tubes were checked under microscope for any surviving trophozoites. MLC was attributed to the tube without any live organisms. See, e.g., Keister, D. B. 1983. Axenic culture of Giardia lamblia in TYI-S-33 medium supplemented with bile. Trans. Soc. Trop. Med. Hyg. 77:487-488.

CHO cells [3] = test: CHO cell cytotoxicity assay in 1536-well format (ATP content counter-screen); format: cell-based, Chinese hamster; settings: concentration at which 50% of DMSO control ATP levels are detected, 48 hours
Protocol: For the viability assay in 1536-well format, 2 μL media was dispensed per well into 1536-well white solid-bottom plates using Multidrop Combi dispenser. Subsequently, 23 nL/well compound solutions or DMSO controls were dispensed to the assay plates via a pintool workstation. The Chinese hamster ovary (CHO) cells were grown in T225 flasks to 70% confluence under a standard cell culture condition (ATCC), detached with 0.25% Trypsin/EDTA, and seeded at 250 cells/well in 4 μL media (Dulbecco's Modified Eagle Medium, 10% fetal bovine serum, 1× penicillin/streptomycin). The plates were incubated at 37° C. with 5% CO2 and 95% humidity for 48 hours. Subsequently, ATP content was measured following the addition of 4 μL/well of ATPLite reagent and a 20 min incubation on a ViewLux plate reader.
Data from the CHO cell counter-screen underwent the same initial analysis, with the exception that raw luminescence counts were normalized relative to DMSO only wells (0% activity) and 38.3 μM camptothecin treated wells (100% activity).
CHO cells, commonly used in high throughput compound screening, were selected to determine the cytotoxicity of the compounds towards a mammalian cell line.

G. lamblia GS isolate = test: ATP content assay against G. lamblia GS isolate; format: cell-based, Giardia lamblia; settings: Table 2, screen, read-out: Giardia GS IC50
Protocol: as §1
As a further confirmatory step, some compounds that were commercially available were purchased as powder samples and tested against the G. lamblia GS isolate using both the ATP content and enumeration assays (Table 3).

Compound	Emax (Giardia WB; Giardia) [%]	IC50 (Giardia WB; Giardia) [nM]	Emax (CHO cells [1]) [%]	MBC ([2]; Giardia duodenalis, 72 h) [µM]	IC50 (CHO cells [3]; Cricetulus griseus, CHO) [nM]	IC50 (Giardia WB) [nM]	Giardia WB Efficacy (Giardia WB) [%]	CHO Efficacy (CHO cells [1]) [%]	MBC [2] [µM]	IC50 (CHO cells [3]) [nM]	IC50 (G. lamblia GS isolate; Giardia duodenalis) [nM]	IC50 (G. lamblia GS isolate) [nM]
O=C(Nc1ncc([N+](=O)[O-])s1)c1cccs1 [Tenonitrozol]	93.1	290	21.5	1.54 (≈ 0.393 µg/mL)	> 100000	–	–	–	–	–	–	–
Amlexanox	–	–	–	–	–	2590	92.4	89.3	>41.7	3260	–	–
CCN(CC)C(=S)SSC(=S)N(CC)CC [Disulfiram]	95	6500	53.6	–	200	–	–	–	–	–	–	–
COc1cc2c(cc1O)CCN[C@]21CS[C@H]2c3c(OC(C)=O)c(C)c4c(c3[C@H](COC1=O)N1C2[C@H]2c3c(cc(C)c(OC)c3O)C[C@@H]([C@@H]1O)N2C)OCO4 (stereo partly drawn) [Ecteinascidin 743]	95.9	6.51	97.6	–	50	–	–	–	–	–	–	–
Bortezomib [Bortezomib (S,R)]	–	–	–	–	–	70	92.8	36.2	–	10	–	–
NC(=O)c1cc(N2CC2)c([N+](=O)[O-])cc1[N+](=O)[O-] [CB 1954]	–	–	–	–	–	120	96.4	−16.9	–	> 100000	–	–
O=[N+]([O-])c1ccc(OC2OC(CO)C(O)C(O)C2F)c([N+](=O)[O-])c1 (stereo not drawn) [Dinitroph-dfgp]	44.2	43400	-8	–	> 100000	–	–	–	–	–	–	–
C=CCNC1=C2C[C@@H](C)C[C@H](OC)[C@H](O)[C@@H](C)/C=C(\C)[C@H](OC(N)=O)[C@@H](OC)/C=C\C=C(/C)C(=O)NC(=CC1=O)C2=O [17-Allylamino geldanamycin]	95.6	81.9	86.9	13.9 (≈ 8.14 µg/mL)	520	–	–	–	–	–	–	–
COC(=O)Nc1nc2ccc(C(=O)c3cccs3)cc2[nH]1 [Nocodazole]	86.7	183	54.4	0.15 (≈ 0.0452 µg/mL)	370	–	–	–	–	–	–	–
COC(=O)[C@H]1[C@H]2C[C@@H]3c4[nH]c5ccccc5c4CCN3C[C@H]2C[C@@H](OC(=O)c2cc(OC)c(OC)c(OC)c2)[C@@H]1OC [Deserpidine]	94.5	1630	13	1.54 (≈ 0.891 µg/mL)	280	–	–	–	–	–	283	–
CN(C)C(=S)SSC(=S)N(C)C [Tetramethylthiur am disulfide, tetramethylthiuram disulfide]	97.6	5160	97.6	–	520	–	–	–	–	–	–	–
CC(C)C[C@H](NC(=O)[C@H](Cc1ccccc1)NC(=O)c1cnccn1)B(O)O [Bortezomib (S,S), Bortezomib]	94.4	110	48.2	–	20	–	–	–	–	–	–	–
CC[C@]1(O)C[C@@H]2C[N@@](CCc3c([nH]c4ccccc34)[C@@](C(=O)OC)(c3cc4c(cc3OC)N(C)[C@H]3[C@@](O)(C(=O)OC)[C@H](OC(C)=O)[C@]5(CC)C=CCN6CC[C@]43[C@@H]65)C2)C1 [Vinblastine sulfate]	90.1	1450	64.1	–	100	–	–	–	–	–	–	–
O=[N+]([O-])c1ccc(/C=N/O)o1 [Nifuroxime]	–	–	–	–	–	460	97.1	−50.3	1.54 (≈ 0.24 µg/mL)	41000	–	1000
CC(=O)[C@]1(O)Cc2c(O)c3c(c(O)c2[C@@H](O[C@H]2C[C@H](N)[C@H](O)[C@H](C)O2)C1)C(=O)c1ccccc1C3=O [Idarubicin HCl]	94.1	3260	88.7	> 41.7	200	–	–	–	–	–	–	–
N[C@H](C(=O)O)[C@@H]1CC(Cl)=NO1 [Acivicin]	85.9	170	52.5	–	27400	–	–	–	–	–	–	–
COC(COC(N)=O)C1=C(N2CC2)C(=O)C(C)=C(N2CC2)C1=O (stereo not drawn) [Carboquone]	97.4	183	98.4	1.54 (≈ 0.495 µg/mL)	580	–	–	–	–	–	–	–
CCCC(=O)OCC(OC(=O)CCC)C(OC(=O)CCC)C(Cn1c2nc(=O)[nH]c(=O)c-2nc2cc(C)c(C)cc21)OC(=O)CCC (stereo not drawn) [Riboflavin Butyrate]	95.7	1090	20.3	41.7 (≈ 27.4 µg/mL)	> 100000	–	–	–	–	–	1130	–
Oc1cc(O)cc(/C=C/c2ccc(O)c(O)c2)c1 [Piceatannol]	81.3	3260	-16.6	13.9 (≈ 3.4 µg/mL)	> 100000	–	–	–	–	–	3560	–
Oc1ccc(/C=C\c2cc(O)cc(O)c2)cc1 [Resveratrol]	80.7	4940	22.2	> 208	39200	–	–	–	–	–	–	–
c1ccc2c(c1)[I+]c1ccccc1-2 [Diphenylene- iodonium chloride, diphenyleneiodonium chloride]	96	259	95.9	–	2060	–	–	–	–	–	–	–
CCCCc1ccc2[nH]c(NC(=O)OC)nc2c1 [Parbendazole]	90.2	312	60.3	–	440	–	–	–	–	–	–	–
O=C1c2c(O)ccc(O)c2C(=O)c2c(NCCNCCO)ccc(NCCNCCO)c21 [Mitoxantrone]	87.5	8190	95.8	> 41.7	5800	–	–	–	–	–	–	–
CC(=O)Nc1ncc([N+](=O)[O-])s1 [Nithiamide]	94.6	580	25.9	4.63 (≈ 0.867 µg/mL)	> 100000	–	–	–	–	–	317	–
CCCOc1ccc2nc(NC(=O)OC)sc2c1 [Tioxidazole]	90.9	1460	34.9	1.54 (≈ 0.41 µg/mL)	> 100000	–	–	–	–	–	634	–
